Activity calls are given as the source filed them. The rule behind the calls is not given here.
How the values were obtained:
T-24 [1] = experiment: Potency index, ratio of CD50 for RES to CD50 for test compound against human T24 cells after 24 hrs; format: functional
[2] = Selectivity index, ratio of CD50 against human MHRF cells to CD50 for human MDAH 2774 cells after 72 hrs
DU-145 [3] = experiment: Potency index, ratio of CD50 for RES to CD50 for test compound against human DU145 cells after 24 hrs; format: functional
[4] = Selectivity index, ratio of CD50 against human MHRF cells to CD50 for human T24 cells after 72 hrs
[5] = Ratio of CD50 for test compound to CD50 for RES against human MHRF cells after 72 hrs; format: ADME, cell-based
[6] = Selectivity index, ratio of CD50 against human MHRF cells to CD50 for human MDAH 2774 cells after 24 hrs
T-24 [7] = experiment: Cytotoxicity against human T24 cells after 48 hrs by MTT assay; format: functional; details: T-24, 48 h, read-out: CD50 (the source's name)
T-24 [8] = experiment: Cytotoxicity against human T24 cells after 24 hrs by MTT assay; format: functional; details: T-24, 24 h, read-out: CD50 (the source's name)
[9] = Selectivity index, ratio of CD50 against human MHRF cells to CD50 for human MDAH 2774 cells after 48 hrs
DU-145 [10] = experiment: Cytotoxicity against human DU145 cells after 48 hrs by MTT assay; format: functional; details: DU-145, 48 h, read-out: CD50 (the source's name)
T-24 [11] = experiment: Cytotoxicity against human T24 cells after 72 hrs by MTT assay; format: functional; details: T-24, 72 h, read-out: CD50 (the source's name)
MDAH 2774 [12] = experiment: Potency index, ratio of CD50 for RES to CD50 for test compound against human MDAH 2774 cells after 24 hrs; format: functional
MDAH 2774 [13] = experiment: Cytotoxicity against human MDAH 2774 cells after 24 hrs by MTT assay; format: functional; details: MDAH 2774, 24 h, read-out: CD50 (the source's name)
DU-145 [14] = experiment: Potency index, ratio of CD50 for RES to CD50 for test compound against human DU145 cells after 48 hrs; format: functional
[15] = Selectivity index, ratio of CD50 against human MHRF cells to CD50 for human DU145 cells after 48 hrs
[16] = Cytotoxicity against human MHRF cells after 24 hrs by MTT assay; format: cell-based; details: read-out: CD50
DU-145 [17] = experiment: Cytotoxicity against human DU145 cells after 72 hrs by MTT assay; format: functional; details: DU-145, 72 h, read-out: CD50 (the source's name)
MDAH 2774 [18] = experiment: Potency index, ratio of CD50 for RES to CD50 for test compound against human MDAH 2774 cells after 72 hrs; format: functional
DU-145 [19] = experiment: Cytotoxicity against human DU145 cells after 24 hrs by MTT assay; format: functional; details: DU-145, 24 h, read-out: CD50 (the source's name)
MDAH 2774 [20] = experiment: Cytotoxicity against human MDAH 2774 cells after 48 hrs by MTT assay; format: functional; details: MDAH 2774, 48 h, read-out: CD50 (the source's name)
[21] = Ratio of CD50 for test compound to CD50 for RES against human MHRF cells after 24 hrs; format: ADME, cell-based
[22] = Cytotoxicity against human MHRF cells after 72 hrs by MTT assay; format: cell-based; details: read-out: CD50
[23] = Ratio of CD50 for test compound to CD50 for RES against human MHRF cells after 48 hrs; format: ADME, cell-based
[24] = Lipophilicity, log P of the compound; format: physicochemical; details: octanol/water
T-24 [25] = experiment: Potency index, ratio of CD50 for RES to CD50 for test compound against human T24 cells after 48 hrs; format: functional
DU-145 [26] = experiment: Potency index, ratio of CD50 for RES to CD50 for test compound against human DU145 cells after 72 hrs; format: functional
[27] = Selectivity index, ratio of CD50 against human MHRF cells to CD50 for human T24 cells after 24 hrs
MDAH 2774 [28] = experiment: Potency index, ratio of CD50 for RES to CD50 for test compound against human MDAH 2774 cells after 48 hrs; format: functional
[29] = Selectivity index, ratio of CD50 against human MHRF cells to CD50 for human DU145 cells after 72 hrs
MDAH 2774 [30] = experiment: Cytotoxicity against human MDAH 2774 cells after 72 hrs by MTT assay; format: functional; details: MDAH 2774, 72 h, read-out: CD50 (the source's name)
[31] = Selectivity index, ratio of CD50 against human MHRF cells to CD50 for human DU145 cells after 24 hrs
T-24 [32] = experiment: Potency index, ratio of CD50 for RES to CD50 for test compound against human T24 cells after 72 hrs; format: functional
[33] = Cytotoxicity against human MHRF cells after 48 hrs by MTT assay; format: cell-based; details: read-out: CD50
[34] = Selectivity index, ratio of CD50 against human MHRF cells to CD50 for human T24 cells after 48 hrs
DU-145 [35] = experiment: Cytotoxicity against human DU145 cells assessed as inhibition of cell viability at 2 to 500 uM after 24 hrs by MTT assay; format: functional, cell-based
DU-145 [36] = experiment: Pro-oxidative activity in human DU145 cells assessed as increase in H2O2 mediated DCF formation at 25 to 100 uM preincubated with DCFH-DA for 30 mins followed by compound treatment for 3 hrs by fluorescence analysis; format: functional, cell-based
DU-145 [37] = experiment: Cytotoxicity against human DU145 cells assessed as inhibition of cell viability at 2 to 500 uM after 24 hrs in presence of CAT by MTT assay; format: functional, cell-based

Row | Compound | Ratio (T-24 [1]) | Selectivity Index [2] | Ratio (DU-145 [3]) | Selectivity Index [4] | Ratio [5] | Selectivity Index [6] | CC50 (T-24 [7]) [µM] | CC50 (T-24 [8]) [µM] | Selectivity Index [9] | CC50 (DU-145 [10]) [µM] | CC50 (T-24 [11]) [µM] | Ratio (MDAH 2774 [12]) | CC50 (MDAH 2774 [13]) [µM] | CC50 at 24 h [16] [µM] | CC50 (DU-145 [17]) [µM] | CC50 (DU-145 [19]) [µM] | CC50 (MDAH 2774 [20]) [µM] | CC50 at 72 h [22] [µM] | CC50 (MDAH 2774 [30]) [µM] | CC50 at 48 h [33] [µM] | also measured
1 | Oc1ccc(C#Cc2cc(O)cc(O)c2)cc1 | 2.3 | 8.6 | 1.7 | 7.2 | 0.2 | 5.5 | 41.1 | 92.2 | 7.5 | 37.4 | 24.3 | 0.7 | 54.1 | 295 | 20.3 | 55.7 | 26.4 | 175 | 20.4 | 198 | Ratio (DU-145 [14]): 1.6; Selectivity Index [15]: 5.3; Ratio (MDAH 2774 [18]): 0.7; selectivity ratio at 24 h [21]: 0.5; selectivity ratio at 48 h [23]: 0.3; logP [24]: 1.85; Ratio (T-24 [25]): 1.5; Ratio (DU-145 [26]): 1.4; Selectivity Index [27]: 3.2; Ratio (MDAH 2774 [28]): 0.9; Selectivity Index [29]: 8.6; Selectivity Index [31]: 5.3; Ratio (T-24 [32]): 1; Selectivity Index [34]: 4.8
2 | Oc1ccc(/C=C/c2cc(O)cc(O)c2)cc1 [RESVERATROL] |  |  |  |  |  |  | 61.8 | 210 |  | 58.2 | 22.7 |  | 36.9 | 155 | 27.9 | 92.2 | 23 | 32 | 14.6 | 50.9 | inhibition (DU-145 [35]): inactive; Activity (DU-145 [36]): inactive; inhibition (DU-145 [37]): inactive; logP [24]: 1.85
3 | Oc1cc(O)cc(C#Cc2cc(O)cc(O)c2)c1 | 4.7 | 4 | 1.6 | 3.3 | 0.5 | 5 | 27.3 | 44.7 | 5.2 | 31.6 | 20.1 | 1.7 | 31.4 | 156 | 17 | 57 | 21.5 | 66.9 | 16.8 | 113 | Ratio (DU-145 [14]): 1.8; Selectivity Index [15]: 3.6; Ratio (MDAH 2774 [18]): 0.9; selectivity ratio at 24 h [21]: 1; selectivity ratio at 48 h [23]: 0.5; Ratio (T-24 [25]): 2.3; Ratio (DU-145 [26]): 5; Selectivity Index [27]: 3.5; Ratio (MDAH 2774 [28]): 0.7; Selectivity Index [29]: 4; Selectivity Index [31]: 2.7; Ratio (T-24 [32]): 1.1; Selectivity Index [34]: 4.1
4 | Oc1ccc(C#Cc2ccc(O)cc2)cc1 | 2.5 | 49.3 | 2 | 18 | 0.2 | 13.9 | 31.1 | 82.6 | 18.5 | 12.6 | 8.5 | 1.7 | 21.5 | 299 | 5.6 | 46.7 | 10.5 | 153 | 3.1 | 194 | inhibition (DU-145 [35]): Active; Activity (DU-145 [36]): Active; inhibition (DU-145 [37]): inactive; Ratio (DU-145 [14]): 4.6; Selectivity Index [15]: 15.4; Ratio (MDAH 2774 [18]): 4.7; selectivity ratio at 24 h [21]: 0.5; selectivity ratio at 48 h [23]: 0.3; logP [24]: 2.3; Ratio (T-24 [25]): 2; Ratio (DU-145 [26]): 5; Selectivity Index [27]: 3.6; Ratio (MDAH 2774 [28]): 2.2; Selectivity Index [29]: 27.3; Selectivity Index [31]: 6.4; Ratio (T-24 [32]): 2.7; Selectivity Index [34]: 6.2

— ChEMBL document CHEMBL4431341, “Synthesis and anticancer activity of a hydroxytolan series” (Bioorg Med Chem Lett, 2016)
